Test results reported in PubChem BioAssay (NCI).
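Dose response: 5 concentrations. Exposure: 48 h. Format: 96-well plates. Endpoint: linear interpolation; highest concentration if not reached. TGI marks complete inhibition of growth.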

Legend:
Assay in all cases: inhibition of tumour cell growth, NCI panel, 48 h
DMS 114 small cell lung = system: DMS 114 small cell lung
HT29 colon = system: HT29 colon
OVCAR-8 ovarian = system: OVCAR-8 ovarian
UACC-257 melanoma = system: UACC-257 melanoma
NCI-H522 lung = system: NCI-H522 lung
K-562 leukemia = system: K-562 leukemia
A549 NSCLC = system: A549 NSCLC
HL-60(TB) leukemia = system: HL-60(TB) leukemia
SNB-78 CNS = system: SNB-78 CNS
HCT-116 colon = system: HCT-116 colon
SK-MEL-28 melanoma = system: SK-MEL-28 melanoma
MOLT-4 leukemia = system: MOLT-4 leukemia
SW-620 colon = system: SW-620 colon
IGROV1 ovarian = system: IGROV1 ovarian
NCI-H226 lung = system: NCI-H226 lung
NCI-H23 lung = system: NCI-H23 lung
CCRF-CEM leukemia = system: CCRF-CEM leukemia
HOP-18 NSCLC = system: HOP-18 NSCLC
SN12C renal = system: SN12C renal
SF-295 CNS = system: SF-295 CNS
UO-31 renal = system: UO-31 renal
ACHN renal = system: ACHN renal
RXF 393 renal = system: RXF 393 renal
TK-10 renal = system: TK-10 renal
CAKI-1 renal = system: CAKI-1 renal
M14 melanoma = system: M14 melanoma
SK-MEL-2 melanoma = system: SK-MEL-2 melanoma
OVCAR-3 ovarian = system: OVCAR-3 ovarian
OVCAR-4 ovarian = system: OVCAR-4 ovarian
786-0 renal = system: 786-0 renal
EKVX NSCLC = system: EKVX NSCLC
U251 CNS = system: U251 CNS
SK-MEL-5 melanoma = system: SK-MEL-5 melanoma
RPMI-8226 leukemia = system: RPMI-8226 leukemia
SNB-19 CNS = system: SNB-19 CNS
KM12 colon = system: KM12 colon
HCC-2998 colon = system: HCC-2998 colon
COLO 205 colon = system: COLO 205 colon
DLD-1 colon = system: DLD-1 colon
HOP-62 NSCLC = system: HOP-62 NSCLC
MALME-3M melanoma = system: MALME-3M melanoma
HCT-15 colon = system: HCT-15 colon
OVCAR-5 ovarian = system: OVCAR-5 ovarian
NCI-H460 lung = system: NCI-H460 lung
LXFL 529 NSCLC = system: LXFL 529 NSCLC
M19-MEL melanoma = system: M19-MEL melanoma
SR leukemia = system: SR leukemia
LOX IMVI melanoma = system: LOX IMVI melanoma
UACC-62 melanoma = system: UACC-62 melanoma
SF-539 CNS = system: SF-539 CNS
HOP-92 NSCLC = system: HOP-92 NSCLC
SF-268 CNS = system: SF-268 CNS
SK-OV-3 ovarian = system: SK-OV-3 ovarian
DMS 273 small cell lung = system: DMS 273 small cell lung
A498 renal = system: A498 renal
KM20L2 colon = system: KM20L2 colon
SNB-75 CNS = system: SNB-75 CNS
XF 498 CNS = system: XF 498 CNS

Measured: TGI

CCOC(=O)C(=O)Nc1ccc(C)cc1C
> 100 µM: DMS 114 small cell lung | HT29 colon | OVCAR-8 ovarian | UACC-257 melanoma | NCI-H522 lung | K-562 leukemia | A549 NSCLC | HL-60(TB) leukemia | SNB-78 CNS | HCT-116 colon | SK-MEL-28 melanoma | MOLT-4 leukemia | SW-620 colon | IGROV1 ovarian | NCI-H226 lung | NCI-H23 lung | CCRF-CEM leukemia | HOP-18 NSCLC | SN12C renal | SF-295 CNS | UO-31 renal | ACHN renal | RXF 393 renal | TK-10 renal | CAKI-1 renal | M14 melanoma | SK-MEL-2 melanoma | OVCAR-3 ovarian | OVCAR-4 ovarian | 786-0 renal | EKVX NSCLC | U251 CNS | SK-MEL-5 melanoma | RPMI-8226 leukemia | SNB-19 CNS | KM12 colon | HCC-2998 colon | COLO 205 colon | DLD-1 colon | HOP-62 NSCLC | MALME-3M melanoma | HCT-15 colon | OVCAR-5 ovarian | NCI-H460 lung | LXFL 529 NSCLC | M19-MEL melanoma | SR leukemia | LOX IMVI melanoma | UACC-62 melanoma | SF-539 CNS | HOP-92 NSCLC | SF-268 CNS | SK-OV-3 ovarian

Cc1cc2c(=O)n(-c3ccc(F)cc3)c(C)nc2c(C(=O)O)c1C
> 100 µM: DMS 114 small cell lung | HT29 colon | OVCAR-8 ovarian | UACC-257 melanoma | K-562 leukemia | A549 NSCLC | DMS 273 small cell lung | HL-60(TB) leukemia | SNB-78 CNS | HCT-116 colon | SK-MEL-28 melanoma | MOLT-4 leukemia | SW-620 colon | IGROV1 ovarian | NCI-H226 lung | NCI-H23 lung | CCRF-CEM leukemia | HOP-18 NSCLC | SN12C renal | SF-295 CNS | UO-31 renal | ACHN renal | A498 renal | RXF 393 renal | TK-10 renal | CAKI-1 renal | M14 melanoma | SK-MEL-2 melanoma | OVCAR-3 ovarian | OVCAR-4 ovarian | 786-0 renal | EKVX NSCLC | U251 CNS | SK-MEL-5 melanoma | RPMI-8226 leukemia | KM20L2 colon | KM12 colon | HCC-2998 colon | COLO 205 colon | DLD-1 colon | HOP-62 NSCLC | MALME-3M melanoma | HCT-15 colon | OVCAR-5 ovarian | NCI-H460 lung | SNB-75 CNS | LXFL 529 NSCLC | M19-MEL melanoma | SR leukemia | LOX IMVI melanoma | UACC-62 melanoma | SF-539 CNS | HOP-92 NSCLC | SF-268 CNS | SK-OV-3 ovarian

CC1C[C@H](OC(N)=O)C(C)CC1=O (some centres not stated)
> 100 µM: DMS 114 small cell lung | HT29 colon | OVCAR-8 ovarian | UACC-257 melanoma | XF 498 CNS | K-562 leukemia | A549 NSCLC | DMS 273 small cell lung | HL-60(TB) leukemia | SNB-78 CNS | HCT-116 colon | MOLT-4 leukemia | SW-620 colon | IGROV1 ovarian | NCI-H23 lung | CCRF-CEM leukemia | HOP-18 NSCLC | SN12C renal | SF-295 CNS | UO-31 renal | ACHN renal | A498 renal | RXF 393 renal | TK-10 renal | CAKI-1 renal | M14 melanoma | SK-MEL-2 melanoma | OVCAR-3 ovarian | OVCAR-4 ovarian | 786-0 renal | EKVX NSCLC | U251 CNS | SK-MEL-5 melanoma | RPMI-8226 leukemia | KM20L2 colon | SNB-19 CNS | KM12 colon | HCC-2998 colon | COLO 205 colon | DLD-1 colon | HOP-62 NSCLC | MALME-3M melanoma | HCT-15 colon | OVCAR-5 ovarian | NCI-H460 lung | SNB-75 CNS | LXFL 529 NSCLC | M19-MEL melanoma | LOX IMVI melanoma | UACC-62 melanoma | SF-539 CNS | HOP-92 NSCLC | SF-268 CNS | SK-OV-3 ovarian
